Test results published in PubChem BioAssay (NCI).
Where “and” joins values, the source holds several entries; their conditions need not be identical. Identical values can stand only once.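 The compound was tested at five concentrations on cells cultured in 96-well plates, with a 48-hour exposure period. At the GI50, growth is halved. TGI: total growth inhibition.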

Experiments:
Assay in all cases: NCI-60 cell line screen, 48 h
NCI-H23 lung = system: NCI-H23 lung
NCI-H460 lung = system: NCI-H460 lung
UO-31 renal = system: UO-31 renal
OVCAR-5 ovarian = system: OVCAR-5 ovarian
MDA-MB-231 breast = system: MDA-MB-231 breast
IGROV1 ovarian = system: IGROV1 ovarian
ACHN renal = system: ACHN renal
HCT-15 colon = system: HCT-15 colon
A549 NSCLC = system: A549 NSCLC
HCT-116 colon = system: HCT-116 colon

Row | Structure (SMILES) | GI50 (NCI-H23 lung) | TGI (NCI-H23 lung) | GI50 (NCI-H460 lung) | TGI (NCI-H460 lung) | GI50 (UO-31 renal) | TGI (UO-31 renal) | GI50 (OVCAR-5 ovarian) | TGI (OVCAR-5 ovarian) | GI50 (MDA-MB-231 breast) | TGI (MDA-MB-231 breast) | GI50 (IGROV1 ovarian) | TGI (IGROV1 ovarian) | GI50 (ACHN renal) | TGI (ACHN renal) | GI50 (HCT-15 colon) | TGI (HCT-15 colon) | GI50 (A549 NSCLC) | TGI (A549 NSCLC) | TGI (HCT-116 colon) | GI50 (HCT-116 colon)
1 | N#Cc1c(N)c(C#N)c2c(c1-c1ccc(Cl)cc1)COc1ccc(F)cc1-2 | 7.11 µM | 39.2 µM | 18.7 µM | > 50 µM | 10.9 µM | > 50 µM | 48.6 µM | > 50 µM | 7.71 µM | 45.7 µM | 6.24 µM | 30.5 µM | 19.7 µM | > 50 µM | 43.8 µM | > 50 µM | 42.6 µM | > 50 µM |  | 
2 | C#Cc1ccc(-n2c(/C=C/c3ccc4ccccc4c3)nc3ncccc3c2=O)cc1 | 6.39 µM | > 100 µM | 2.88 µM | > 100 µM | 3.11 µM | > 100 µM | 6.88 µM | > 100 µM | 3.74 µM | > 100 µM | 2.92 µM | > 100 µM | 2.57 µM | > 100 µM | 2.91 µM | > 100 µM | 2.73 µM | > 100 µM |  | 
3 | COc1cc(/C=C/c2cc(O)c(C/C=C(\C)CC/C=C(\C)CO)c(O)c2)cc2c1O[C@]1(C)CC[C@@H](O)C(C)(C)[C@H]1C2 | 4.93 µM and 20.5 µM | > 93.7 µM |  | > 100 µM |  |  | > 100 µM | > 100 µM | 31 µM | > 100 µM | > 100 µM | > 100 µM |  | > 71.4 µM |  | > 72.4 µM | 3.96 µM and 9.59 µM | > 62.5 µM | 46.5 µM | 
4 | O=C(O)c1cn(C2CC2)c2cc(N3CCN(Cc4ccc5ccccc5c4O)CC3)c(F)cc2c1=O | 3.51 µM | > 100 µM |  |  |  |  |  |  | 3.41 µM | > 100 µM | 4.91 µM | > 100 µM |  |  | 3.22 µM | > 100 µM | 3.29 µM | > 100 µM |  | 
5 | CC1CC(c2ccc(Cl)c(Cl)c2)=Nc2ccccc2S1 (stereo not drawn) |  | > 100 µM |  | > 100 µM |  | > 100 µM |  | > 100 µM |  |  |  | > 100 µM |  | > 100 µM |  | > 100 µM |  | > 100 µM | > 100 µM | 
6 | Cc1ccc2nc3c(C)cc(=O)cc-3sc2c1 |  | 52.8 µM |  | 60.6 µM |  | 83.9 µM |  | 61 µM |  |  |  | > 100 µM |  | 53.1 µM |  | 40.9 µM |  | 54.6 µM | 34.2 µM | 
7 | NCC1(N2CCOCC2)C2CCCC21CNc1ccccc1 (stereo not drawn) |  | > 100 µM |  | > 100 µM |  | > 100 µM |  | > 100 µM |  |  |  | > 100 µM |  | > 100 µM |  |  |  | > 100 µM | > 100 µM | 
8 | COC(=O)C1(O)c2ccccc2N=C2C1CCN2C (stereo not drawn) |  | > 100 µM |  | > 100 µM |  | > 100 µM |  | > 100 µM |  |  |  | > 100 µM |  | > 100 µM |  | > 100 µM |  | > 100 µM | > 100 µM | 
9 | O=C1CC[C@@H](NC(=O)Cc2ccccc2)C(=O)N1 |  | > 100 µM |  | > 100 µM |  | > 100 µM |  | > 100 µM |  |  |  | > 100 µM |  | > 100 µM |  |  |  | > 100 µM | > 100 µM | 
10 | COC(=O)NC(=O)c1cn(C2CCCCC2)c(=O)[nH]c1=O |  | > 100 µM |  | > 100 µM |  | > 100 µM |  | > 100 µM |  |  |  | > 100 µM |  | > 100 µM |  | > 100 µM |  | > 100 µM | > 100 µM | 
11 | O=C(CSc1ncc(-c2ccccc2)n1-c1ccccc1)Nc1ccc(-c2nc3ccccc3s2)cc1 | 20.4 µM | > 100 µM | 3.61 µM | > 100 µM |  |  | > 100 µM | > 100 µM | 21.4 µM | > 100 µM | 2.72 µM | > 100 µM | 14.5 µM | > 100 µM | > 100 µM | > 100 µM |  |  | > 100 µM | 3.68 µM
12 | c1ccc2c(c1)N=C(c1ccc3ccccc3c1)CC(c1cccc3ccccc13)S2 (stereo not drawn) |  | > 100 µM |  | > 100 µM |  | > 100 µM |  | > 100 µM |  |  |  | > 100 µM |  | > 100 µM |  | > 100 µM |  | > 100 µM |  | 
13 | NC(=O)c1ncn(Cc2ccccc2)c1CNC(N)=S |  | > 100 µM |  | > 100 µM |  | > 100 µM |  | > 100 µM |  |  |  | > 100 µM |  | > 100 µM |  | > 100 µM |  | > 100 µM |  | 
14 | CC1(C)CC(N2CCN(C3CC(C)(C)NC(C)(C)C3)CC2)CC(C)(C)N1 |  | > 100 µM |  | > 100 µM |  | > 100 µM |  | > 100 µM |  |  |  | > 100 µM |  | > 100 µM |  | > 100 µM |  | > 100 µM | > 100 µM | 
15 | O=C1N=C(Nc2nc(-c3csc(NC4=NC(=O)/C(=C\c5ccc(Cl)cc5)S4)n3)cs2)S/C1=C/c1ccc(Cl)cc1 | 13.5 µM | > 50 µM | 7.86 µM | > 50 µM | 17.6 µM | > 50 µM | 25.8 µM | > 50 µM | 10.2 µM | 35 µM | 19.8 µM | > 50 µM | 11.2 µM | 48.5 µM | 40.4 µM | > 50 µM | 10.5 µM | > 50 µM |  | 
16 | Cc1ccc(NC(=O)C(=O)CC(=O)c2ccccc2)cc1C |  | > 100 µM |  | > 100 µM |  | > 100 µM |  | > 100 µM |  |  |  | > 100 µM |  | > 100 µM |  | > 100 µM |  | > 100 µM | > 100 µM | 
17 | COC(=O)C1(C)CCCC2(C)c3cc(OC)ccc3C(=O)C(Br)C12 (stereo not drawn) |  | > 10 µM |  | > 10 µM |  | 3.28 µM |  | > 10 µM |  | > 10 µM |  | > 10 µM |  |  |  | > 10 µM |  | > 10 µM | 7.23 µM | 
18 | O=C(/C=C/c1ccccc1)OCC1=C[C@@H](O)[C@@H]2C=CO[C@@H](OC3OC(CO)C(O)C(O)C3O)[C@H]12 (stereo partly drawn) |  | > 100 µM |  |  |  | > 100 µM |  | > 100 µM |  | > 100 µM |  | > 100 µM |  | > 100 µM |  | > 100 µM |  | > 100 µM | > 100 µM | 
19 | O=C1c2ccccc2C(=O)c2c1ccc1c2N=C(c2ccc(Br)cc2)CC(c2cccc3ccccc23)N1 (stereo not drawn) |  | > 100 µM |  | > 100 µM |  | > 100 µM |  | > 100 µM |  |  |  | > 100 µM |  | > 100 µM |  | > 100 µM |  | > 100 µM |  | 
20 | Cc1c(O)c(Br)c(C)c(O)c1Br (tested in a mixture with another compound) |  | 4.62 µM |  | 16.1 µM |  | 3.28 µM |  | 34.9 µM |  | 25.5 µM |  | 20.5 µM |  | 3.05 µM |  |  |  | 60 µM |  | 
21 | O=C(NC1C(=O)NNC1c1ccccc1Cl)c1ccccc1 (stereo not drawn) |  | > 100 µM |  | > 100 µM |  | > 100 µM |  | > 100 µM |  |  |  | > 100 µM |  | > 100 µM |  | > 100 µM |  | > 100 µM | > 100 µM | 
